Assay results published in patent US20080213250A1, “Use of Eph Receptor Inhibitors for the Treatment of Neurodegenerative Diseases” (priority 2004, published 2008).

Tests used:
Assay in all cases: Chemical proteomics pull-down with immobilized compound, LC-MS/MS identification
Conditions in all cases: maximum in any chemical proteomics experiment
[1] = molecular target: EphA4 (Mus musculus, UniProt Q03137)
[2] = molecular target: T1, EphB4 (Mus musculus, UniProt P54761)
T1 sequence (P54761 16-987): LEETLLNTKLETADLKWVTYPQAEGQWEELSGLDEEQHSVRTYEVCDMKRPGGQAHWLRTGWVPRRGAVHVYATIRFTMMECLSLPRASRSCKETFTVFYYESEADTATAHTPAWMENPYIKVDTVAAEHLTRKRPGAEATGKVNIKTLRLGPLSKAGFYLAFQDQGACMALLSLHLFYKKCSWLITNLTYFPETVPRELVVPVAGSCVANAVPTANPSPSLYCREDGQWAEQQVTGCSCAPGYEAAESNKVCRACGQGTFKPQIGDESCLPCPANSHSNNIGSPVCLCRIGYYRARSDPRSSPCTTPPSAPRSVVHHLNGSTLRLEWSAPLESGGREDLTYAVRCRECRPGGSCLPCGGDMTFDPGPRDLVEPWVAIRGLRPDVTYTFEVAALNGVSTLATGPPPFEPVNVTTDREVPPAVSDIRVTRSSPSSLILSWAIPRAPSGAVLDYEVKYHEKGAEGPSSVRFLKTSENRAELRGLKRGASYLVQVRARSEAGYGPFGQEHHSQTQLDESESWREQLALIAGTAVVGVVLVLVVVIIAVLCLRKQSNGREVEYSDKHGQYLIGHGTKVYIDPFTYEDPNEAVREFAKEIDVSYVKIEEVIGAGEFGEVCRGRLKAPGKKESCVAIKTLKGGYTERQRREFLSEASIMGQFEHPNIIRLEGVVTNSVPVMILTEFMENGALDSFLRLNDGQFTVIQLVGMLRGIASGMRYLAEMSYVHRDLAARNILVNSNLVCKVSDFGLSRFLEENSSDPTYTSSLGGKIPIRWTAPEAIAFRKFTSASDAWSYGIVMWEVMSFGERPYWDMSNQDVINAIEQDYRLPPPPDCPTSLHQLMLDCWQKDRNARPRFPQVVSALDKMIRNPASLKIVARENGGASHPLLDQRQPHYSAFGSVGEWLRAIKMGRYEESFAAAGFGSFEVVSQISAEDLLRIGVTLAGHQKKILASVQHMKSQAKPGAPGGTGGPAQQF

[3] = molecular target: T2, EphB3 (Mus musculus, UniProt P54754)
T2 sequence (P54754 30-993): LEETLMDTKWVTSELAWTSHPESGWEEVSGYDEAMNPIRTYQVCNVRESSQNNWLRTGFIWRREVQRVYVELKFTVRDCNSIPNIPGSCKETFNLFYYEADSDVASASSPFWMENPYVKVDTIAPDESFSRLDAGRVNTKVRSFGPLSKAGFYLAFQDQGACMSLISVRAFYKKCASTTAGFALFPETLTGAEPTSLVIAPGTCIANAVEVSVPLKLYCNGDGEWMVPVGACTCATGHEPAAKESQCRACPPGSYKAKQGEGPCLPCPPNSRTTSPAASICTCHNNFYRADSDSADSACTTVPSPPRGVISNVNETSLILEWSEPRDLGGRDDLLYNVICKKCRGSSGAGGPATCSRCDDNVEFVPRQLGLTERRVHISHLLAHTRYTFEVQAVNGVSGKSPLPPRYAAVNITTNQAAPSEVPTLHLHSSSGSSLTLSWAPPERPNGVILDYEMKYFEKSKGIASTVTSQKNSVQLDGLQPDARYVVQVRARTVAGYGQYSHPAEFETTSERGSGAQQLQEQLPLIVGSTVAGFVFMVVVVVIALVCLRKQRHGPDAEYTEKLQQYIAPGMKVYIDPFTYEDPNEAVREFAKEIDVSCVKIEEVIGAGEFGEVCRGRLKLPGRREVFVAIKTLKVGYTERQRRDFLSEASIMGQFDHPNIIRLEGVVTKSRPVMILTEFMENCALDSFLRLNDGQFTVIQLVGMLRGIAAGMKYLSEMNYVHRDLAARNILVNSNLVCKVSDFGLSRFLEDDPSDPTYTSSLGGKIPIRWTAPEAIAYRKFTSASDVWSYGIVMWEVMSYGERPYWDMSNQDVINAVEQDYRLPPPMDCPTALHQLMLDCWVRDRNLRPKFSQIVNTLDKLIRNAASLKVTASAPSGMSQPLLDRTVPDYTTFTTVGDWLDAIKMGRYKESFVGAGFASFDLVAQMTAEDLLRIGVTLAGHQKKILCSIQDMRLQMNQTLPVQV

[4] = molecular target: EphA7 (Mus musculus, UniProt Q61772)
Sequence of EphA7 (Q61772 28-998): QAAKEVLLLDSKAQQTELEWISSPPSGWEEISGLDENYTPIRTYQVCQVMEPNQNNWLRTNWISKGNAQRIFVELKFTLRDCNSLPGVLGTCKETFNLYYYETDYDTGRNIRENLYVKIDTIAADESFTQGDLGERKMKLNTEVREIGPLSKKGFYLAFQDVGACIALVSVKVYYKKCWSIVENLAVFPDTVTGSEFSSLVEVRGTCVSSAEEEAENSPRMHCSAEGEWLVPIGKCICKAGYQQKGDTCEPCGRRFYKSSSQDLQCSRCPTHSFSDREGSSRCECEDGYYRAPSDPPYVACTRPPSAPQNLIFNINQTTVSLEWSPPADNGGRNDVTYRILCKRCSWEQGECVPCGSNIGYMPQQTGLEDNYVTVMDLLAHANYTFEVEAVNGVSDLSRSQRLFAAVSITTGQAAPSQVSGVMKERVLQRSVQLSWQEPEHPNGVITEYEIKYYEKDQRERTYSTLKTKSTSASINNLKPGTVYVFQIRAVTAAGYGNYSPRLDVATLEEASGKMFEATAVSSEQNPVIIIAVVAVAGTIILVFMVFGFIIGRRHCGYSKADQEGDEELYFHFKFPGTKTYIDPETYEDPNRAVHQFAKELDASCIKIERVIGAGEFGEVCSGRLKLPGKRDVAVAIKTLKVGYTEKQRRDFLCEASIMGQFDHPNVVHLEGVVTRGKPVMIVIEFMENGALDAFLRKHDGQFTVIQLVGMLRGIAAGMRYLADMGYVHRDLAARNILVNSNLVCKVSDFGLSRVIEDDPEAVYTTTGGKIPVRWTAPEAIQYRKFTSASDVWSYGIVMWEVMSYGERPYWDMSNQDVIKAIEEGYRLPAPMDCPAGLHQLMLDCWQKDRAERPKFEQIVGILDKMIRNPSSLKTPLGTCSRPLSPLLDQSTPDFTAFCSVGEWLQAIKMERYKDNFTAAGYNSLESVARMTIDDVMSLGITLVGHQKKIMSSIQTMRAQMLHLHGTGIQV

Sequence of EphA4 (Q03137 20-986): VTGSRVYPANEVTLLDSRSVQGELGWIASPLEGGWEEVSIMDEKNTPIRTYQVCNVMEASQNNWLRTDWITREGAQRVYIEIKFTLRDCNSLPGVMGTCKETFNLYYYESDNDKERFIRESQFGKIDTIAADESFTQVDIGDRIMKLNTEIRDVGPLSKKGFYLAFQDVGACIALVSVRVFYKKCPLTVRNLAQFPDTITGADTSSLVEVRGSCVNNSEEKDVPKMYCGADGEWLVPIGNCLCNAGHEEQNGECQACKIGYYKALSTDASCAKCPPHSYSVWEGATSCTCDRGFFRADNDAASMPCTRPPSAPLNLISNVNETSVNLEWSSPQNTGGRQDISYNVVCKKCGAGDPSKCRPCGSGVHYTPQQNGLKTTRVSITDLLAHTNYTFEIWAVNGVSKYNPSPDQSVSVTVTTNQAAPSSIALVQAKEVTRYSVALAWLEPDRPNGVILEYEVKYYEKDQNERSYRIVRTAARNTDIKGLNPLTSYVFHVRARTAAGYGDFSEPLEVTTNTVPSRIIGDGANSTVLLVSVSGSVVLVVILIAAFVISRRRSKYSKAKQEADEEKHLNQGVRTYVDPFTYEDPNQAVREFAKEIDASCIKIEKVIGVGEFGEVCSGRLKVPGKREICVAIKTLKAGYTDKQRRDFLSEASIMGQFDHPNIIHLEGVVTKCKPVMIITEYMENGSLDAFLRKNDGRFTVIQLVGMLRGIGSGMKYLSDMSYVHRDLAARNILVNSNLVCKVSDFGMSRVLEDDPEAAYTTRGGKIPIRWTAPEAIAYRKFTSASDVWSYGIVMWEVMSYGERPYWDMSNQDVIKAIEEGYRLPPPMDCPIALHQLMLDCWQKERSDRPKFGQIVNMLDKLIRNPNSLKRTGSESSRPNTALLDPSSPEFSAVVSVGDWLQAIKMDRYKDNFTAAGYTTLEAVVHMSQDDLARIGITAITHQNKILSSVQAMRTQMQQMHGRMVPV

| Structure (SMILES) | maximal number of non-redundant peptides identified, EphA4 [1] | maximal number of non-redundant peptides identified, EphB4 [2] | maximal number of non-redundant peptides identified, EphB3 [3] | maximal number of non-redundant peptides identified, EphA7 [4] |
| --- | --- | --- | --- | --- |
| CSc1cccc(Nc2ncc3cc(-c4c(Cl)cccc4Cl)c(=O)n(C)c3n2)c1 [PD173955] | 47 | 17 | 17 | 7 |
| CC(C)[C@H](CO)Nc1nc(Nc2ccc(C(=O)O)c(Cl)c2)c2ncn(C(C)C)c2n1 [Purvalanol B] | 14 | 46 | 4 | 4 |
